For orientation: IC50 means the point on the concentration scale where inhibition reaches its midpoint. A higher IC50 goes with a need for much substance.

Common to all, as to format: functional, cell-based
Assay [1] in a line: Cytotoxicity against human NALM6 cells by MTT assay. The conditions noted are these: NALM-6.
Assay [2] is described as follows: Cytotoxicity against human WM115 cells by MTT assay. Conditions: WM-115. In general terms: Tetrazolium dyes change colour on reduction, which living cells bring about.
Assay [3] in a line: Cytotoxicity against human HL60 cells by MTT assay. Conditions: HL-60.

For `O=C(/C=C/c1ccccc1)c1cc(O)ccc1O`, the figures for the IC50 in assay [1], in assay [2] and in assay [3] were 5.5 µM, 61.3 µM and 5.3 µM, respectively.
On the same counts, the results for `O=C(/C=C/c1ccc(O)cc1)c1ccccc1O` are 40.6 µM, 69.1 µM and 7.1 µM.
On the same counts, the results for `O=C(/C=C/c1ccccc1Cl)c1ccccc1O` are 6.1 µM, 7.6 µM and 7.7 µM.
On the same counts, the results for `O=C(/C=C/c1ccc(Cl)cc1)c1ccccc1O` are 9.3 µM, 48.9 µM and 8.3 µM.
Turning to `COc1ccc(/C=C/C(=O)c2ccccc2O)cc1`, the IC50 in assay [1] came to 50.2 µM; in assay [2], 60.5 µM; in assay [3], 48.7 µM.
For `O=C(/C=C/c1ccc([N+](=O)[O-])cc1)c1ccccc1O`, the values for the IC50 in assay [1], in assay [2] and in assay [3] were 6.9 µM, 27.6 µM and 5.8 µM, respectively.
Consider `COc1cc(/C=C/C(=O)c2ccccc2O)cc(OC)c1OC`, for which the half-maximal inhibitory concentration (IC50) is 31.7 µM in assay [1], 56.4 µM in assay [2] and 39.3 µM in assay [3].
On the same counts, the results for `O=C(/C=C/c1ccc(Br)cc1)c1ccccc1O` are 6.8 µM, 50 µM and 7.3 µM.
Consider `O=C(/C=C/c1ccccc1)c1ccc(O)cc1O` [2',4'-DIHYDROXYCHALCONE], for which the results for the 50% inhibitory concentration (IC50) in assay [1], in assay [2] and in assay [3] were 18 µM, 42 µM and 6.3 µM, respectively.
On the same counts, the results for `O=C(/C=C/c1ccccc1)c1ccccc1O` [2'-HYDROXYCHALCONE] are 37.5 µM, 40.8 µM and 18 µM.
On the same counts, the results for `O=C(/C=C/c1ccccc1)c1ccccc1` [CHALCONE] are 23.9 µM, 43.1 µM and 55.4 µM.
As to `O=C1CCOc2ccccc21` [CHROMANONE], the values for the concentration for half-maximal inhibition (IC50) in assay [1], in assay [2] and in assay [3] were 8.2 µM, 53.2 µM and 19.1 µM, respectively.

Source of the values: ChEMBL document CHEMBL3352125, “Cytotoxic activity of substituted chalcones in terms of molecular electronic properties” (Bioorg Med Chem Lett, 2014).
